Measured values from patent US7425573B2, “Use of annellated pyrrole compounds in the treatment of articular cartilage or subchondral bone degeneration” (priority 2001, dated 2008).

Experiments:
[1] = test system: experimental dog model of OA; conditions: cited from earlier work
LTB4 = LTB4 production in synovial explant culture of OA dogs (LPS, EIA); format: in vivo, dog; conditions: both treated groups, explants with 1 μg/ml LPS; placebo 2.48±0.69 pg/mg tissue
Protocol: (§1) The dogs were randomly separated into 3 treatment groups. Group 1 (n=7 dogs) was made up of dogs that received placebo (encapsulated methylcellulose) treatment (OA dogs); Groups 2 and 3 (n=7 dogs per group) received encapsulated ML3000 twice daily for 8 weeks at total doses of 2.5 and 5 mg/kg, respectively, beginning the day following surgery. The medication was administered 7 days/week throughout the duration of the study. All dogs were killed 8 weeks after surgery.
Representative specimens of synovial membrane from all dogs were aseptically dissected from underlying tissue. The specimens were rinsed several times in Dulbecco's Modified Eagle's Medium (DMEM; Gibco-BRL Life Technologies, Burlington, Ontario, Canada), and 150 mg of tissue incubated (duplicate) for 48 hours at 37° C. in a humidified atmosphere of 5% CO2/95% air in DMEM medium in the presence of 1 μg/ml lipopolysaccharide (LPS; Sigma-Aldrich Canada, Oakville, Ontario, Canada). The LTB4 was extracted from cultured synovium explants as follows: membranes were homogenized in EIA buffer (1 M phosphate, pH 7.4, containing 1% BSA, 4 M NaCl, 10 mM EDTA and 0.1% sodium azide) and centrifuged (30000 g, 20 minutes, 4° C.). Supernatants were collected and the levels of LTB4 determined using EIA (Cayman Chemical).

[2] = Plasma ML3000 level after immediate release dosage forms; format: in vivo; conditions: immediate release dosage form, for 8 hours
[3] = test system: experimental osteoarthritis (OA) dog model; assay: Experimental OA dog model, histologic grading of cartilage and synovial membrane; format: in vivo
Protocol: (§2) Twenty-one adult crossbred dogs (2-3 years old), weighing 20-25 kg each, were used in this study. Surgical sectioning of the anterior cruciate ligament (ACL) of the right knee through a stab wound was performed on all dogs as previously described (5,6). Prior to surgery, the animals were anesthetized intravenously with pentobarbital sodium (25 mg/kg) and intubated. Following surgery, the dogs were kept at a housing farm where they were free to exercise in a large pen.
as §1
Histologic evaluation was performed on sagittal sections of cartilage from the lesioned areas of each femoral condyle and tibial plateau as described (7,8). Specimens were dissected, fixed in TissuFix #2 (Laboratoires Gilles Chaput, Montréal, Québec, Canada), and embedded in paraffin for histologic evaluation. Serial sections (5 μm) were stained with Safranin O. The severity of the OA lesions was graded on scale of 0-14, by 2 independent observers (DJ, JF), using the histologic/histochemical scale of Mankin et al (12). This scale evaluates the severity of OA lesions based on the loss of staining with Safranin O (scale 0-4), cellular changes (scale 0-3), invasion of the tidemark by blood vessels (scale 0-1), and structural changes (scale 0-6, where 0=normal cartilage structure and 6=erosion of the cartilage down to the subchondral bone). This scoring system was based on the most severe histologic changes within each cartilage section.
Representative specimens of synovial membrane from the gutters of the medial and lateral knee compartments were also dissected from underlying tissue. The specimens were fixed in TissuFix #2, embedded in paraffin, sectioned (5 μm), and stained with hematoxylin and eosin. Two synovial membrane specimens from each compartment were examined, serial selections were made throughout the specimens, and each one scored separately. The highest score from each specimen was recorded. The average was calculated and considered as a unit for the whole knee. The severity of synovitis was graded on a scale of 0-10 (13) by 2 independent observers (DVJ, JCF) adding the scores for 3 histologic criteria: synovial lining cell hyperplasia (scale 0-2), villous hyperplasia (scale 0-3), and degree of cellular infiltration by mononuclear and polymorphonuclear cells (scale 0-5).

[4] = Clinical observation of dogs during 8 weeks of treatment; format: in vivo; conditions: all dogs of the 3 experimental groups
Protocol: as §2, §1

[5] = test system: carrageenan-induced paw edema; conditions: rat; cited from earlier work
interleukin-1β (IL-1β) = assay: Immunohistochemistry, synovial membrane cell score for IL-1β in OA dogs; format: in vivo, dog; conditions: 2.5 and 5 mg/kg/day
Protocol: as §1
Cartilage and synovial membrane specimens were processed for immunohistochemical analysis as previously described (7,14). Briefly, specimens were fixed in 4% neutral buffered formalin for 24 hours, then embedded in paraffin. Sections (5 μm) of paraffin-embedded specimens were placed on Superfrost Plus slides (Fisher Scientific, Nepean, Ontario, Canada), deparaffinized in toluene, dehydrated in a graded series of ethanol, and preincubated with chondroitinase ABC (0.25 units/ml) in phosphate buffered saline (PBS; Sigma-Aldrich Canada) for 60 minutes at 37° C. […]
Synovial membrane. For synovial membrane analysis, a cell score of the different specimens was determined for each section using our published method (8). […] The percentage of cells staining positive for the specific antigen was evaluated in each field as described above for cartilage. […]

collagenase-1 (MMP-1) = assay: Immunohistochemistry, chondrocyte cell score for collagenase-1 in cartilage of OA dogs; format: in vivo, dog; conditions: condyles and plateaus, both doses, slightly more pronounced at highest dosage
Protocol: as §1
Cartilage and synovial membrane specimens were processed for immunohistochemical analysis as previously described (7,14). Briefly, specimens were fixed in 4% neutral buffered formalin for 24 hours, then embedded in paraffin. […]
Cartilage. Quantification of the different antigens in cartilage was done using a published method (7,14). […] For each arthritic specimen, it was ensured prior to evaluation that an intact cartilage surface could be detected and used as a marker for validation of morphometric analysis. The total number of chondrocytes and the number of chondrocytes staining positive for the specific antigen were determined. The final results were expressed as the percentage of chondrocytes staining positive for the antigen (cell score) with the maximum score being 100%. […]

rat adjuvant arthritis = conditions: cited from earlier work
[6] = test system: experimental osteoarthritis (OA) dog model; assay: Experimental OA dog model (ACL section), macroscopic grading of the knee; format: in vivo; conditions: for reduction of size of cartilage lesions on tibial plateaus vs placebo: P<0.01; for width of osteophytes: mean±SEM, placebo 4.50±0.66, not significant; for osteophytes present (share of condyles): placebo 93%
Protocol: as §2, §1
Immediately after killing, the right knee of each dog was dissected, placed on ice, and the synovial fluid aspirated. Each knee was examined by 2 independent, blinded observers (DVJ, JCF) for gross morphologic changes including the presence of osteophyte formation and cartilage lesions as previously described (5,6). The degree of osteophyte formation was graded by measuring the maximal width (mm) of the spur of each femoral condyle. The cartilage changes on the medial and lateral femoral condyles and tibial plateaus were graded separately under a dissecting microscope (Stereozoom; Bausch & Lomb, Rochester, N.Y.).
The area of the articular surface changes was measured and expressed in mm^2. The depth of erosion was graded on a scale of 0-4, as follows: 0=surface appears normal, 1=minimal fibrillation or a slight yellowish discoloration of the surface, 2=erosion extended into superficial or middle layers, 3=erosion extended into deep,layers, and 4=erosion extended to the subchondral bone.

PGE2 = PGE2 measurement in synovial fluid of OA dogs (EIA); format: in vivo, dog; conditions: 2.5 and 5 mg/kg/day; placebo 652.8±149.9 pg/ml
Protocol: as §1
Synovial fluid taken at the time of sacrifice was centrifuged (14000 g, 15 minutes, 4° C.), and supernatants used for PGE2 determination. The level of PGE2 was determined using a specific enzyme immunoassay (EIA) (Cayman Chemical, Ann Arbor, Mich.).

knee OA patients = conditions: X-ray criteria, 5-year period; cited from earlier work

In the case of CC(=O)Oc1ccccc1C(=O)O [ASA, acetylsalicylic acid], the “effect on progression of experimental OA” value [1] is listed as “ineffective (10) or even demonstrated to accelerate cartilage damage”.

In the case of CC(C(=O)O)c1ccc2c(c1)[nH]c1ccc(Cl)cc12 (centres unmarked) [Carprofen], the “effect on progression of experimental OA” value [1] is listed as “exhibit anti-OA effects”.

For CC1(C)Cc2c(-c3ccccc3)c(-c3ccc(Cl)cc3)c(CC(=O)O)n2C1 [ML3000, [2,2-dimethyl-6-(4-chlorophenyl)-7-phenyl-2,3-dihydro-1H-pyrrolizine-5yl]-acetic acid], the “LTB4 levels in cultured synovium” value (LTB4) was “statistically significant reduction”, the “plasma ML3000 concentration maintained” value ([2]; dose 2.5 mg/kg) was “above 100 ng/mL” and the “plasma ML3000 concentration maintained” value ([2]; dose 5 mg/kg) was greater than 200 ng/mL. The “villous hyperplasia of synovial membrane” value ([3]; 5 mg/kg/day) was “significant reduction”, the “histologic severity of cartilage lesions on condyles vs placebo, significance” value ([3]; 5 mg/kg/day, Mankin scale 0-14) was “statistical significance was obtained” and the “histologic severity of cartilage lesions on tibial plateaus” value ([3]; 2.5 and 5 mg/kg/day (P<0.002 and P<0.02), Mankin scale) was “statistically significant decrease”. For the same compound, the “histologic severity of cartilage lesions on condyles vs placebo” value ([3]; ML3000-treated dogs, Mankin scale 0-14) was “less severe”, the “body weight during the study period” value [4] was “no change in the body weight” and the anti-inflammatory action [5] was “potent anti-inflammatory action”. For the same compound, the “number of synovial lining cells staining positive for IL-1β” value (interleukin-1β (IL-1β)) was “dose-dependent and significant decrease”, the “chondrocyte cell score for collagenase-1” value (collagenase-1 (MMP-1)) was “significant decrease” and the anti-inflammatory action (rat adjuvant arthritis) was “potent anti-inflammatory action”. The “reduction of size of cartilage lesions on tibial plateaus vs placebo” value ([6]; 2.5 mg/kg/day, 8 weeks) was 45%, the “reduction of size of cartilage lesions on femoral condyles vs placebo” value ([6]; 2.5 mg/kg/day, 8 weeks, P<0.05) was 39% and the width of osteophytes ([6]; 2.5 mg/kg/day, 8 weeks) was 3.57±0.56 mm. For the same compound, the “osteophytes present (share of condyles)” value ([6]; 2.5 mg/kg/day, 8 weeks) was 93%, the “reduction of size of cartilage lesions on tibial plateaus vs placebo” value ([6]; 5 mg/kg/day, 8 weeks) was 54% and the “reduction of size of cartilage lesions on femoral condyles vs placebo” value ([6]; 5 mg/kg/day, 8 weeks, P<0.04) was 61%. For the same compound, the width of osteophytes ([6]; 5 mg/kg/day, 8 weeks) was 3.86±0.66 mm, the “osteophytes present (share of condyles)” value ([6]; 5 mg/kg/day, 8 weeks) was 86% and the “macroscopic appearance of synovial membrane vs placebo” value ([6]; ML3000-treated dogs, 8 weeks) was “thinner, contained fewer blood vessels, and the discoloration was less intense”. The “grade of cartilage lesions on tibial plateaus” value ([6]; both doses (2.5 and 5 mg/kg/day), scale 0-4) was “significantly reduced”, the “grade of cartilage lesions on femoral condyles” value ([6]; treated dogs (2.5 and 5 mg/kg/day), scale 0-4) was “did not reach statistical significance” and the “level of PGE2 in synovial fluid” value (PGE2) was “markedly decreased”.

For O=C(O)Cc1ccccc1Nc1c(Cl)cccc1Cl [diclofenac], the “effect on progression of experimental OA” value [1] is listed as “ineffective (10) or even demonstrated to accelerate cartilage damage”.

In the case of COc1ccc2c(c1)c(CC(=O)O)c(C)n2C(=O)c1ccc(Cl)cc1 [indomethacin], the “effect on progression of cartilage damage” value (knee OA patients) is listed as “even accelerated its progression”.

In the case of CC(C(=O)O)c1ccc(C(=O)c2ccccc2)s1 (centres unmarked) [tiaprofenic acid], the “effect on progression of cartilage damage” value (knee OA patients) is given as “could not retard the progression of cartilage damage”.
